Like-named read-outs stand apart in the source and are kept apart here. Where a SMILES comes first, the peptide text is derived from it. [ ]: non-standard residue; d: D form. The star is where a group is joined. Piv = CC(C)(C)C(=O)*; GABA = NCCCC(=O)O
Legend:
[1] = tested on: Wistar rats; conditions: for number of spontaneous behavior: caudate nucleus putamen administration
Description: (§1) Wistar rats (250 to 300 g) were anesthetized with pentobarbital (50 mg/kg, i.p.) and their parietal regions were shaved off and the head was respectively fixed on a rat brain fixing apparatus. After incising the scalp, a hole of 1 to 1.2 mm was made in the cranial bones using an electric drill, and a stainless steel guide cannula of 1 to 1.2 mm in diameter and 23 mm in length was inserted into the hole and fixed to the cranial bones with dental cement. As the insertion position of the guide cannula, co-ordinates of tonsillar nucleus (A: -1.3 mm, L: 3.4 mm and V: 8.6 mm from bregma) were selected with reference to the brain illustrations of Paxions and Watson. Rats were reared for 1 week after the operation and then used in the test.
(§2) Drug-free physiological saline containing 13% ethanol (vehicle) was used as a control in the same manner.

[2] = tested on: male Wistar rats; assay: Inhibition of (±) Bay K8644-induced spontaneous behavior and rearing, drug administered to caudate nucleus putamen (Test Example 3); assay type: in vivo, rat; conditions: caudate nucleus putamen administration; for number of spontaneous behavior: induced by (±) Bay K8644 (18.5 µmol/ml), in comparison with the control group (Fig. 5); for inhibition action on number of spontaneous behavior / number of rearing: induced by (±) Bay K8644; for inhibition action on number of spontaneous behavior: compared with PLG (Fig. 5); for number of rearing: compared with PLG (Fig. 6)
Description: At the same time, the number of rearing was counted. The term rearing as used herein means an action to stand upright solely with hind legs, which is counted by the naked eye.
The number of spontaneous behavior is shown in Fig. 5, and the number of rearing in Fig. 6, both induced by (±) Bay K8644.

[3] = tested on: Wistar rats; conditions: for inhibition of the total number of spontaneous behavior observed within 2 hours after administration of methamphetamine: rat, in vivo; for number of spontaneous behavior: tonsillar nucleus administration, 10 µmol/ml at 2.7 µl/min for 2 minutes, after 30 minutes of methamphetamine 1.0 mg/kg i.p., control about 1,250 counts
Description: as §1, §2

[4] = after 30 minutes of methamphetamine 1.0 mg/kg i.p.

SMILES | number of spontaneous behavior ([1]; after 75 minutes of methamphetamine 1.0 mg/kg i.p.) | site selectivity ([1]; caudate nucleus putamen versus tonsillar nucleus administration) | number of spontaneous behavior [2] | inhibition action on number of spontaneous behavior [2] | number of rearing [2] | inhibition of the total number of spontaneous behavior observed within 2 hours after administration of methamphetamine [3] | number of spontaneous behavior [3] | number of spontaneous behavior ([1]; 10 µmol/ml at 2.7 µl/min for 2 minutes, after 15 minutes of methamphetamine 1.0 mg/kg i.p.) | number of spontaneous behavior [1, 4]
CC(C)C[C@H](NC(=O)[C@@H](CO)NC(=O)C(C)(C)C)C(=O)NCCCC(=O)O [PDSLG, Piv-D-Ser-Leu-GABA] (Piv-[dS]-Leu-[GABA]-OH) | about 300 counts | stronger action on caudate nucleus putamen | decreased | stronger than that of PLG | definitely strong inhibition effect in comparison with PLG | about 25% | about 820 counts |  | 
CC(C)C[C@H](NC(=O)C(C)(C)C)C(=O)NCCCC(=O)O [PLG, Piv-Leu-GABA, reference compound] |  |  | decreased |  |  |  | about 750 counts | about 650 counts | about 600 counts
CC(C)C[C@H](NC(=O)[C@H](CO)NC(=O)C(C)(C)C)C(=O)NCCCC(=O)O [PSLG, Piv-L-Ser-Leu-GABA] (Piv-Ser-Leu-[GABA]-OH) |  |  | decreased | stronger than that of PLG | definitely strong inhibition effect in comparison with PLG | about 25% | about 900 counts |  | about 600 counts

Reference: EP0786470A1, “PEPTIDE COMPOUND” (SEIKAGAKU KOGYO KABUSHIKI KAISHA, priority 1993, dated 1997)
